{"source": "patent US20130078290A1", "about": "“Gastroretentive Dosage Forms Of GABA Analogs” (Rubicon Research Private Limited, priority 2010, published 2013)", "origin": "cited, not measured here", "key": {"[1]": {"conditions": "in water and in acidic and basic aqueous solutions"}, "[2]": {"conditions": "for Elimination half-life: in vivo"}}, "data": [{"smiles": "NCC1(CC(=O)O)CCCCC1", "note": "[gabapentin, 1-(Aminomethyl)cyclohexaneacetic acid]", "values": [{"measurement": "Solubility", "setting": "[1]", "result": "freely soluble"}, {"measurement": "Oral bioavailability", "setting": "[2]; dose in range of 300-400 mg", "result": "approximately 60%"}, {"measurement": "Elimination half-life", "setting": "[2]", "result": "5 to 7", "unit": "h"}]}, {"smiles": "CC(C)CC(CN)CC(=O)O", "note": "(centres unmarked) [pregabalin, 5-methyl-3-aminomethyl-hexanoic acid]", "values": [{"measurement": "Solubility", "setting": "[1]", "result": "freely soluble"}, {"measurement": "Elimination half-life", "setting": "[2]", "result": "about 6.3 hours"}]}]}
